Measured values as given in US6410515B1, “Peptide, a method for its preparation and a pharmaceutical composition containing the peptide” (Immunotech Developments Inc., priority 1995, dated 2002).

What was measured:
[1] = test system: hemopoietic progenitor cells (CFU-S); assay: CFU-S content in bone marrow of mice irradiated with 4 Gy; type: in vivo; details: day 8, control 401 ± 48
Description: The effect of H-A-D-Trp-Y, where A is D-Glu or D-iGlu and Y is OH or a substituted amide, on protection and reconstitution of the population of hemopoietic progenitor cells in cytopenias of different origin was studied.
Ionising radiation was used to deplete bone marrow. Donor mice were irradiated at a dose of 4 Gy. For each of the two peptides, 10 μg/kg was injected intraperitoneally 1 hour, 1 day or 2 days before the irradiation (groups of 12 mice each). Bone marrow was taken from femoral bones 8 days after the irradiation. Eight days generally marks the beginning of an exponential reconstitution of both the total number of cells and the population of hemopoietic progenitors in the bone marrow, which were depleted as a result of irradiation.
On the 8th day a sharp statistically significant increase was recorded in the hemopoietic progenitor cells count in the bone marrow of the mice irradiated in the dose of 4 Gy who had received the peptide 2 days before the irradiation.

[2] = test system: caryocytes in femoral marrow; assay: Reconstitution of caryocyte numbers in femoral marrow after 4 Gy; type: in vivo, mice
Description: The reconstitution of caryocyte numbers and that of hemopoietic progenitors was studied in femoral marrow after irradiation in the dose of 4 Gy and the peptide injection. The test was performed in 12 groups of mice, 6 animals each, and lasted 14 days. Intraperitoneal injections of the peptide in a dose of 10 μg/kg were made 1 day and 2 days before the irradiation.

[3] = test system: mixed lymphocyte culture (MLC); assay: Mixed lymphocyte culture (MLC) proliferation; type: cell-based, mice; details: FIG. 1
Description: The influence of the peptides of the invention on the proliferation of a mixed lymphocyte culture (MLC) was studied. The MLC experimental system is an in vitro analogue of the GVHD reaction.
Donor spleen cells from C57B1 mice ([…]) were injected into recipient (CBA×C57B1) F1 mice. Bone marrow was removed from the recipient and cultured for 4 days. The cultured cells were separated into 3 test groups, one group was treated with iDD, one with the L-peptide H-Ile-Glu-Trp-OH and one was a control. Each test peptide was added in various concentrations. Each determination was done in triplicate. ^3H-thymidine was added to each culture for 16 hours and the index of the proliferation of the cells was calculated.

Substance | CFU-S count per femur ([1]; 10 μg/kg IP 1 hour before 4 Gy) | CFU-S count per femur ([1]; 10 μg/kg IP 1 day before 4 Gy) | CFU-S count per femur ([1]; 10 μg/kg IP 2 days before 4 Gy) | Caryocyte count ([2]; 10 μg/kg IP 1 day before 4 Gy, 4 days after irradiation, 4 Gy alone 9,0 ± 0,3) | Caryocyte count ([2]; 10 μg/kg IP 1 day before 4 Gy, 7 days after irradiation, 4 Gy alone 10,6 ± 0,8) | Caryocyte count ([2]; 10 μg/kg IP 1 day before 4 Gy, 11 days after irradiation, 4 Gy alone 17,0 ± 0,6) | Caryocyte count ([2]; 10 μg/kg IP 1 day before 4 Gy, 14 days after irradiation, 4 Gy alone 17,0 ± 1,2) | Caryocyte count ([2]; 10 μg/kg IP 2 days before 4 Gy, 4 days after irradiation, 4 Gy alone 9,0 ± 0,3) | Caryocyte count ([2]; 10 μg/kg IP 2 days before 4 Gy, 7 days after irradiation, 4 Gy alone 10,6 ± 0,8) | Caryocyte count ([2]; 10 μg/kg IP 2 days before 4 Gy, 11 days after irradiation, 4 Gy alone 17,0 ± 0,6) | Caryocyte count ([2]; 10 μg/kg IP 2 days before 4 Gy, 14 days after irradiation, 4 Gy alone 17,0 ± 1,2) | Effect on proliferation of the allogenic lymphocytes (MLC) ([3]; 0.1 μg/ml) | Effect on proliferation of the allogenic lymphocytes (MLC) ([3]; concentrations 1, 10, 20 μg/ml)
H-D-Glu-D-Trp-OH | 450 ± 95 | 780 ± 92 | 955 ± 93 | 8,0 ± 0,7 × 10^6 | 16,4 ± 0,7 × 10^6 | 16,0 ± 1,3 × 10^6 | 15,0 ± 0,6 × 10^6 | 8,5 ± 0,5 × 10^6 | 20,0 ± 0,7 × 10^6 | 23,0 ± 1,9 × 10^6 | 24,5 ± 0,9 × 10^6 |  | 
H-Ile-Glu-Trp-OH [reference compound] |  |  |  |  |  |  |  |  |  |  |  | negligible inhibition | stimulates the proliferation
